# Reference: ChEMBL document CHEMBL3045522, “Responses of dry beans (Phaseolus vulgaris L.) to sulfentrazone” (Crop Prot, 2007)
# Key:
# Format in all cases: organism-based
# Phaseolus vulgaris [1] = test: Phytotoxicity against Phaseolus vulgaris (Black dry beans) assessed as plant height at 420 g a.i./ha applied pre-emergence measured at 28 days post-emergence (reference value: 28 +/- 1 cm); conditions: in vivo, other, 672 h
# Phaseolus vulgaris [2] = test: Phytotoxicity against Phaseolus vulgaris (Cranberry dry beans) assessed as reduction in shoot dry weight at 840 g a.i./ha applied pre-emergence measured at 42 days post-emergence relative to control; set-up: scale not given: the % may be the effect or the level left; conditions: in vivo, other, 1008 h
# Phaseolus vulgaris [3] = test: Phytotoxicity against Phaseolus vulgaris (Cranberry dry beans) assessed as reduction in yield at 840 g a.i./ha applied pre-emergence relative to control; set-up: scale not given: the % may be the effect or the level left; conditions: in vivo, other
# Phaseolus vulgaris [4] = test: Phytotoxicity against Phaseolus vulgaris (Cranberry dry beans) assessed as plant height at 420 g a.i./ha applied pre-emergence measured at 28 days post-emergence (reference value: 33 +/- 1 cm); conditions: in vivo, other, 672 h
# Phaseolus vulgaris [5] = test: Phytotoxicity against Phaseolus vulgaris (Pinto dry beans) assessed as visual crop injury at 420 to 840 g a.i./ha applied pre-emergence measured at 28 days post-emergence relative to control; conditions: in vivo, other, 672 h
# Phaseolus vulgaris [6] = test: Phytotoxicity against Phaseolus vulgaris (Pinto dry beans) assessed as yield at 840 g a.i./ha applied pre-emergence (reference value: 3.1 +/- 0.1 tons/ha); conditions: in vivo, other
# Phaseolus vulgaris [7] = test: Phytotoxicity against Phaseolus vulgaris (Otebo dry beans) assessed as plant height at 420 g a.i./ha applied pre-emergence measured at 28 days post-emergence (reference value: 31 +/- 2 cm); conditions: in vivo, other, 672 h
# Phaseolus vulgaris [8] = test: Phytotoxicity against Phaseolus vulgaris (Brown dry beans) assessed as shoot dry weight at 420 g a.i./ha applied pre-emergence measured at 42 days post-emergence (reference value: 123 +/- 7 g/m); conditions: in vivo, other, 1008 h
# Phaseolus vulgaris [9] = test: Phytotoxicity against Phaseolus vulgaris (brown dry beans) assessed as visual crop injury at 420 to 840 g a.i./ha applied pre-emergence measured at 28 days post-emergence relative to control; conditions: in vivo, other, 672 h
# Phaseolus vulgaris [10] = test: Phytotoxicity against Phaseolus vulgaris (White dry beans) assessed as reduction in yield at 840 g a.i./ha applied pre-emergence relative to control; set-up: scale not given: the % may be the effect or the level left; conditions: in vivo, other
# Phaseolus vulgaris [11] = test: Phytotoxicity against Phaseolus vulgaris (Kidney dry beans) assessed as plant height at 840 g a.i./ha applied pre-emergence measured at 28 days post-emergence (reference value: 33 +/- 1 cm); conditions: in vivo, other, 672 h
# Phaseolus vulgaris [12] = test: Phytotoxicity against Phaseolus vulgaris (Cranberry dry beans) assessed as shoot dry weight at 420 g a.i./ha applied pre-emergence measured at 42 days post-emergence (reference value: 138 +/- 8 g/m); conditions: in vivo, other, 1008 h
# Phaseolus vulgaris [13] = test: Phytotoxicity against Phaseolus vulgaris (Cranberry dry beans) assessed as plant height at 840 g a.i./ha applied pre-emergence measured at 28 days post-emergence (reference value: 33 +/- 1 cm); conditions: in vivo, other, 672 h
# Phaseolus vulgaris [14] = test: Phytotoxicity against Phaseolus vulgaris (White dry beans) assessed as reduction in shoot dry weight at 840 g a.i./ha applied pre-emergence measured at 42 days post-emergence relative to control; set-up: scale not given: the % may be the effect or the level left; conditions: in vivo, other, 1008 h
# Phaseolus vulgaris [15] = test: Phytotoxicity against Phaseolus vulgaris (dry bean) assessed as visual crop injury at 840 g a.i./ha applied pre-emergence measured at 14 days post-emergence relative to control; conditions: in vivo, other, 336 h
# Phaseolus vulgaris [16] = test: Phytotoxicity against Phaseolus vulgaris (Black dry beans) assessed as shoot dry weight at 420 g a.i./ha applied pre-emergence measured at 42 days post-emergence (reference value: 136 +/- 9 g/m); conditions: in vivo, other, 1008 h
# Phaseolus vulgaris [17] = test: Phytotoxicity against Phaseolus vulgaris (Black dry beans) assessed as reduction in yield at 840 g a.i./ha applied pre-emergence relative to control; set-up: scale not given: the % may be the effect or the level left; conditions: in vivo, other
# Phaseolus vulgaris [18] = test: Phytotoxicity against Phaseolus vulgaris (dry bean) assessed as visual crop injury at 420 g a.i./ha applied pre-emergence measured at 14 days post-emergence relative to control; conditions: in vivo, other, 336 h
# Phaseolus vulgaris [19] = test: Phytotoxicity against Phaseolus vulgaris (White dry beans) assessed as shoot dry weight at 420 g a.i./ha applied pre-emergence measured at 42 days post-emergence (reference value: 135 +/- 11 g/m); conditions: in vivo, other, 1008 h
# Phaseolus vulgaris [20] = test: Phytotoxicity against Phaseolus vulgaris (Cranberry dry beans) assessed as yield at 420 g a.i./ha applied pre-emergence (reference value: 2.7 +/- 0.1 tons/ha); conditions: in vivo, other
# Phaseolus vulgaris [21] = test: Phytotoxicity against Phaseolus vulgaris (Otebo dry beans) assessed as shoot dry weight at 420 g a.i./ha applied pre-emergence measured at 42 days post-emergence (reference value: 156 +/- 10 g/m); conditions: in vivo, other, 1008 h
# Phaseolus vulgaris [22] = test: Phytotoxicity against Phaseolus vulgaris (Cranberry dry beans) assessed as visual crop injury at 420 to 840 g a.i./ha applied pre-emergence measured at 28 days post-emergence relative to control; conditions: in vivo, other, 672 h
# Phaseolus vulgaris [23] = test: Phytotoxicity against Phaseolus vulgaris (Otebo dry beans) assessed as visual crop injury at 420 to 840 g a.i./ha applied pre-emergence measured at 28 days post-emergence relative to control; conditions: in vivo, other, 672 h
# Phaseolus vulgaris [24] = test: Phytotoxicity against Phaseolus vulgaris (Yellow eye dry beans) assessed as plant height at 420 g a.i./ha applied pre-emergence measured at 28 days post-emergence (reference value: 33 +/- 1 cm); conditions: in vivo, other, 672 h
# Phaseolus vulgaris [25] = test: Phytotoxicity against Phaseolus vulgaris (Otebo dry beans) assessed as yield at 420 g a.i./ha applied pre-emergence (reference value: 3.1 +/- 0.1 tons/ha); conditions: in vivo, other
# Phaseolus vulgaris [26] = test: Phytotoxicity against Phaseolus vulgaris (dry bean) assessed as visual crop injury at 840 g a.i./ha applied pre-emergence measured at 28 days post-emergence relative to control; conditions: in vivo, other, 672 h
# Phaseolus vulgaris [27] = test: Phytotoxicity against Phaseolus vulgaris (White dry beans) assessed as plant height at 420 g a.i./ha applied pre-emergence measured at 28 days post-emergence (reference value: 31 +/- 2 cm); conditions: in vivo, other, 672 h
# Phaseolus vulgaris [28] = test: Phytotoxicity against Phaseolus vulgaris (Black dry beans) assessed as yield at 420 g a.i./ha applied pre-emergence (reference value: 3.4 +/- 0.2 tons/ha); conditions: in vivo, other
# Phaseolus vulgaris [29] = test: Phytotoxicity against Phaseolus vulgaris (Yellow eye dry beans) assessed as plant height at 840 g a.i./ha applied pre-emergence measured at 28 days post-emergence (reference value: 33 +/- 1 cm); conditions: in vivo, other, 672 h
smiles,measurement,setting,value
Cc1nn(-c2cc(NS(C)(=O)=O)c(Cl)cc2Cl)c(=O)n1C(F)F [SULFENTRAZONE],Activity,Phaseolus vulgaris [1],26 cm
same,Activity,Phaseolus vulgaris [2],40%
same,Activity,Phaseolus vulgaris [3],44%
same,Activity,Phaseolus vulgaris [4],28 cm
same,Activity,Phaseolus vulgaris [5],9.2%
same,Crop_yield,Phaseolus vulgaris [6],2.7 tons/ha
same,Activity,Phaseolus vulgaris [7],28 cm
same,Activity,Phaseolus vulgaris [8],134 g/m
same,Activity,Phaseolus vulgaris [9],7%
same,Activity,Phaseolus vulgaris [10],52%
same,Activity,Phaseolus vulgaris [11],25 cm
same,Activity,Phaseolus vulgaris [12],138 g/m
same,Activity,Phaseolus vulgaris [13],21 cm
same,Activity,Phaseolus vulgaris [14],30%
same,Activity,Phaseolus vulgaris [15],30%
same,Activity,Phaseolus vulgaris [16],111 g/m
same,Activity,Phaseolus vulgaris [17],47%
same,Activity,Phaseolus vulgaris [18],12%
same,Activity,Phaseolus vulgaris [19],130 g/m
same,Crop_yield,Phaseolus vulgaris [20],2.4 tons/ha
same,Activity,Phaseolus vulgaris [21],157 g/m
same,Activity,Phaseolus vulgaris [22],17.6%
same,Activity,Phaseolus vulgaris [23],13.9%
same,Activity,Phaseolus vulgaris [24],31 cm
same,Crop_yield,Phaseolus vulgaris [25],3 tons/ha
same,Activity,Phaseolus vulgaris [26],22%
same,Activity,Phaseolus vulgaris [27],27 cm
same,Crop_yield,Phaseolus vulgaris [28],2.9 tons/ha
same,Activity,Phaseolus vulgaris [29],25 cm
